“Also recorded” adds a separate entry of the source. Peptide text beside a SMILES is read from it. * marks the point of attachment. Cbz = O=C(OCc1ccccc1)*; CH2F = FC*
Experiments:
IL-1β processing = IL-1β processing in infected human bladder epithelial cells with caspase inhibition (Western blot); format: cell-based; details: human bladder epithelial cells infected with acute cystitis strains, 4 h, pre-incubated with inhibitor 100 μM, 30 min
Protocol: Cells were cultured as described above, but in particular in 6-well plates (7×10^5 cells/well, Thermo Fisher Scientific), lysed with RIPA lysis buffer, supplemented with protease and phosphatase inhibitors (Roche Diagnostics). They may then be fractionated using NE-PER Nuclear and Cytoplasmic extraction reagents (Thermo Scientific). For Caspase inhibition, cells were pre-incubated with Z-VAD(OMe)-FMK (#BML-P416-0001, Enzo Life Science, 100 μM, 30 min). Supernatants were filtered and concentrated by trichloroacetic acid precipitation, followed by acetone desiccation. […] Bands were quantified by ImageJ. […]
Cell lysates and supernatants from infected cells were subjected to Western blot analysis, with antibodies specific for IL-1β. Two fragments of approximately 29 kDa and 16-18 kDa were detected, corresponding to the N-terminal pro-piece and mature IL-1β.

[1] = system: Asc^−/− mice infected with E. coli CFT073; experiment: Acute cystitis immunotherapy in the experimental urinary tract infection model (Asc−/− mice infected with E. coli CFT073); format: in vivo; details: for macroscopic bladder pathology, edema and hyperemia: vs untreated
IL-1β = IL-1β in urine of treated infected Asc−/− mice (Western blot analysis of urine samples); format: in vivo; details: CFT073, IL-1RA (Anakinra) 1 mg i.p. daily
Protocol: IL-1β, IL-6 and IL-8 concentrations in filtered supernatants (Syringe Filter w/0.2 um PES, VWR) were determined by Immulite 1000 (Siemens) and Il-1β concentrations in cell supernatants or urine by Human or Mouse Il-1b/IL-1F2 DuoSet ELISA kits (R&D Systems). Urine MMP-7 levels were quantified with Human total MMP-7 Immunoassay Quantikine® ELISA (R&D Systems).
Cells were cultured as described above, but in particular in 6-well plates (7×10^5 cells/well, Thermo Fisher Scientific), lysed with RIPA lysis buffer, supplemented with protease and phosphatase inhibitors (Roche Diagnostics). They may then be fractionated using NE-PER Nuclear and Cytoplasmic extraction reagents (Thermo Scientific). For Caspase inhibition, cells were pre-incubated with Z-VAD(OMe)-FMK (#BML-P416-0001, Enzo Life Science, 100 μM, 30 min). Supernatants were filtered and concentrated by trichloroacetic acid precipitation, followed by acetone desiccation. […] Bands were quantified by ImageJ.
To address the contribution of MMP-7 to pathology, Asc^−/− mice were also treated with an MMP inhibitor (Batimastat), (0.5 mg in 100 μl of PBS i.p. 30 minutes before, first three and last three days of infection, FIG. 6A). […] By immunohistochemistry, some retention of unprocessed IL-1β in bladder tissue was detected, consistent with the need for MMP-7 and IL-1R to secrete mature IL-1β.

[2] = CFT073, Anakinra 1 mg i.p. daily, 7 days

Row | Compound | inhibition of IL-1β processing (IL-1β processing) | mucosal integrity [1, 2] | mucosal neutrophil infiltrate [1, 2] | urine neutrophil numbers ([1]; CFT073, Anakinra 1 mg i.p. daily, 7 days after infection) | pathology in bladder tissue sections ([1]; CFT073, Anakinra 1 mg i.p. daily, 7 days, H&E) | macroscopic bladder pathology, edema and hyperemia [1, 2] | macroscopic bladder pathology, edema and hyperemia ([1]; CFT073, Anakinra 1 mg i.p. daily, 7 days, listed as IL-1RA) | bacterial counts ([1]; CFT073, Anakinra 1 mg i.p. daily, urine, 7 days after infection) | therapeutic effect / protection from acute cystitis ([1]; E. coli CFT073, Anakinra 1 mg in 100 μl PBS i.p. 30 min before and daily after infection, 7 days, vs untreated Asc−/− mice) | mature IL-1β in urine (IL-1β)
1 | COC(=O)C[C@H](NC(=O)[C@H](C)NC(=O)[C@@H](NC(=O)OCc1ccccc1)C(C)C)C(=O)CF [Z-VAD, Z-VAD(OMe)-FMK] (Cbz-Val-Ala-Asp(OMe)-CH2F) | about 20% |  |  |  |  |  |  |  |  | 
2 | Anakinra: IL-1 receptor antagonist, Anakinra (Kineret, SOBI) |  | maintained | prevented | low | marked reduction | protected | prevented | remained elevated | dramatic therapeutic effect; also recorded: protects; also recorded: prevented | loss

Source: patent publication US11013786B2, “Therapy” (SELECTIMMUNE PHARMA AB, priority 2015, dated 2021)
